In PubChem BioAssay (NCI) one finds GI50 and TGI data, which are given here for eight compounds.

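Cultured in 96-well plates, cells were exposed to test compound for 48 hours across five concentrations. GI50 marks 50% less growth. TGI: concentration producing complete growth inhibition.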

Some test systems named below: LOX IMVI melanoma; A498 renal; BT-549 breast; OVCAR-3 ovarian; NCI/ADR-RES ovarian; HCC-2998 colon; EKVX NSCLC; HOP-62 NSCLC; OVCAR-4 ovarian; A549 NSCLC.
Common to all, as to test: inhibition of tumour cell growth, NCI panel, 48 h

For `CC(C)=CCC[C@H](C)[C@@H]1CC[C@]2(C)C3CC[C@]4(OC4(C)C)C(CCCO)[C@]3(C)CC[C@@]12C` (some centres undefined), the GI50 with LOX IMVI melanoma was 0.18 µM; with A498 renal, 20.1 µM; with BT-549 breast, 26 µM; with OVCAR-3 ovarian, 26.7 µM; with NCI/ADR-RES ovarian, 23.5 µM; with HCC-2998 colon it was 7.75 µM. Besides, the GI50 was 20.7 µM in the experiment with EKVX NSCLC, 20.8 µM with HOP-62 NSCLC, 25.3 µM with OVCAR-4 ovarian and 37.7 µM in the experiment on A549 NSCLC. The TGI in the experiment on LOX IMVI melanoma is 16.5 µM; in the experiment on A498 renal, 37.2 µM; in the experiment on BT-549 breast it was 51.7 µM; with OVCAR-3 ovarian it was 52.8 µM; with NCI/ADR-RES ovarian, 59.2 µM; in the experiment with HCC-2998 colon it was 22.5 µM. Also, the TGI was 50.7 µM in the experiment on EKVX NSCLC, 44.4 µM in the experiment on HOP-62 NSCLC, 59 µM with OVCAR-4 ovarian and greater than 100 µM with A549 NSCLC.
Take `COc1cc2c3c(n(CCCCOC(=O)C(F)(F)F)c(=O)c2cc1OC)-c1cc2c(cc1C3=O)OCO2`: the GI50 in the experiment with LOX IMVI melanoma was greater than 100 µM; in the experiment with A498 renal, greater than 44.4 µM; with BT-549 breast, greater than 100 µM; with OVCAR-3 ovarian, greater than 89.8 µM; with NCI/ADR-RES ovarian, greater than 100 µM; in the experiment with HCC-2998 colon, greater than 100 µM. Besides, the GI50 is greater than 100 µM with EKVX NSCLC, 10.4 µM with HOP-62 NSCLC, greater than 100 µM with OVCAR-4 ovarian and greater than 100 µM in the experiment on A549 NSCLC. Besides, the TGI with LOX IMVI melanoma, with A498 renal, in the experiment with BT-549 breast, in the experiment with OVCAR-3 ovarian, in the experiment on NCI/ADR-RES ovarian and with HCC-2998 colon was greater than 100 µM each time. In addition, the TGI in the experiment with EKVX NSCLC, in the experiment with OVCAR-4 ovarian and with A549 NSCLC was greater than 100 µM throughout.
On to `COc1cc(-c2nc(Nc3nc4ccccc4[nH]3)nc(N)c2C#N)cc(OC)c1OC`, for which the GI50 was 6.37 µM in the experiment with LOX IMVI melanoma; 0.424 µM with A498 renal; 0.857 µM in the experiment with BT-549 breast; 0.286 µM in the experiment on OVCAR-3 ovarian; greater than 100 µM with NCI/ADR-RES ovarian; greater than 40.8 µM with HCC-2998 colon. For the same compound, the GI50 in the experiment on EKVX NSCLC was 41.4 µM; in the experiment with HOP-62 NSCLC, 5.04 µM; in the experiment on OVCAR-4 ovarian it was 12.9 µM; in the experiment with A549 NSCLC it was 30.7 µM. For the same compound, the TGI was 41.4 µM in the experiment on LOX IMVI melanoma; 22 µM in the experiment on A498 renal; 37.1 µM in the experiment with BT-549 breast; 3.61 µM in the experiment with OVCAR-3 ovarian; greater than 100 µM in the experiment on NCI/ADR-RES ovarian; greater than 100 µM in the experiment on HCC-2998 colon. Further, the TGI in the experiment with EKVX NSCLC was greater than 100 µM; in the experiment on HOP-62 NSCLC, 53.2 µM; with OVCAR-4 ovarian, 34.7 µM; in the experiment on A549 NSCLC it was greater than 100 µM.
Turning to `Cn1cncc1[C@@](N)(c1ccc(Cl)cc1)c1ccc2c(c1)c(-c1cccc(Cl)c1)cc(=O)n2C`, the GI50 in the experiment on LOX IMVI melanoma is 1.34 µM; in the experiment on A498 renal, 0.887 µM; in the experiment on BT-549 breast it was 3.16 µM; with OVCAR-3 ovarian it was 2.55 µM; in the experiment on NCI/ADR-RES ovarian it was 2.54 µM; with HCC-2998 colon it was 1.79 µM. Further, the GI50 with EKVX NSCLC is 2.22 µM; in the experiment with HOP-62 NSCLC, 5.51 µM; in the experiment on OVCAR-4 ovarian it was 2.14 µM; in the experiment on A549 NSCLC it was 2.05 µM. The TGI in the experiment with LOX IMVI melanoma came out at 5.36 µM; in the experiment on A498 renal, 17.2 µM; in the experiment with BT-549 breast it was 14.4 µM; with OVCAR-3 ovarian, 7.86 µM; with NCI/ADR-RES ovarian, 12 µM; in the experiment with HCC-2998 colon, 7.08 µM. Also, the TGI in the experiment with EKVX NSCLC was determined as 13.1 µM; with HOP-62 NSCLC it was 18.4 µM; in the experiment on OVCAR-4 ovarian, 14.7 µM; in the experiment on A549 NSCLC, 10.2 µM.
Regarding `COc1ccc2c(c1)C(=O)/C(=C/c1cccc(OCC(=O)Nc3nc4c(s3)CCCC4)c1)O2`, the GI50 was 0.0248 µM with LOX IMVI melanoma; 14.3 µM in the experiment on A498 renal; 1.74 µM in the experiment with BT-549 breast; 0.304 µM with OVCAR-3 ovarian; 2.12 µM with NCI/ADR-RES ovarian; 1.83 µM in the experiment with HCC-2998 colon. Besides, the GI50 in the experiment with EKVX NSCLC is 2.52 µM; with HOP-62 NSCLC, 0.29 µM; with OVCAR-4 ovarian, 2.57 µM; with A549 NSCLC, 3.31 µM. For the same compound, the TGI was found to be 0.066 µM with LOX IMVI melanoma; 27.7 µM in the experiment on A498 renal; 4.49 µM in the experiment on BT-549 breast; 0.865 µM in the experiment on OVCAR-3 ovarian; 6.37 µM in the experiment on NCI/ADR-RES ovarian; 3.44 µM with HCC-2998 colon. Also, the TGI with EKVX NSCLC is 8.73 µM; with HOP-62 NSCLC it was 10.4 µM; with OVCAR-4 ovarian it was 8.52 µM; in the experiment with A549 NSCLC, 18.5 µM.
With `COc1cccc(C2c3cc4c(cc3OC(C)(O)C2C)OCO4)c1O` (centres undefined), the TGI stood at 50.4 µM in the experiment with LOX IMVI melanoma; 18.8 µM in the experiment with A498 renal; 52.8 µM with BT-549 breast; 8.48 µM in the experiment with OVCAR-3 ovarian; 6.4 µM in the experiment with NCI/ADR-RES ovarian; 24.1 µM in the experiment on HCC-2998 colon. Moreover, the TGI with EKVX NSCLC was greater than 100 µM; in the experiment on HOP-62 NSCLC, 44.4 µM; in the experiment on OVCAR-4 ovarian, greater than 96.1 µM; in the experiment on A549 NSCLC it was 66.6 µM.
On to `O=C(Nc1ccccc1O)c1cccc(NC2=C(Cl)C(=O)N(Cc3ccccc3)C2=O)c1`, for which the GI50 in the experiment with LOX IMVI melanoma is 1.62 µM; in the experiment on A498 renal, 14.2 µM; in the experiment on BT-549 breast it was 11.9 µM; in the experiment with OVCAR-3 ovarian, 2.62 µM; in the experiment on NCI/ADR-RES ovarian, 3.35 µM; with HCC-2998 colon it was 3.33 µM. Also, the GI50 in the experiment on EKVX NSCLC was 15.1 µM; in the experiment with HOP-62 NSCLC, 7.98 µM; with OVCAR-4 ovarian, 10.3 µM; in the experiment with A549 NSCLC, 12.4 µM. Besides, the TGI worked out at 3.6 µM in the experiment on LOX IMVI melanoma; 27.7 µM in the experiment on A498 renal; 29.8 µM with BT-549 breast; 7.85 µM in the experiment on OVCAR-3 ovarian; 11.8 µM in the experiment on NCI/ADR-RES ovarian; 13.4 µM with HCC-2998 colon. The TGI in the experiment on EKVX NSCLC was found to be 28.8 µM; in the experiment on HOP-62 NSCLC it was 20.6 µM; with OVCAR-4 ovarian it was 45.4 µM; with A549 NSCLC, 24.8 µM.
`Cn1cc(-c2nc(-c3c[nH]c4ncccc34)cs2)c2cc(F)ccc21`: the GI50 is 2.48 µM in the experiment with LOX IMVI melanoma; 2.03 µM with A498 renal; 3.7 µM in the experiment on BT-549 breast; 3.02 µM in the experiment on OVCAR-3 ovarian; 2.47 µM with NCI/ADR-RES ovarian; 1.98 µM in the experiment on HCC-2998 colon. Moreover, the GI50 in the experiment with EKVX NSCLC is 0.6 µM; with HOP-62 NSCLC, 4.11 µM; in the experiment on OVCAR-4 ovarian, 0.0689 µM; in the experiment on A549 NSCLC, 2.81 µM. The TGI in the experiment on LOX IMVI melanoma was 7.06 µM; with A498 renal, 7.48 µM; with BT-549 breast, 13.6 µM; with OVCAR-3 ovarian, 8.25 µM; in the experiment with NCI/ADR-RES ovarian, 7.66 µM; in the experiment with HCC-2998 colon it was 7.59 µM. The TGI in the experiment on EKVX NSCLC was 10.5 µM; in the experiment with HOP-62 NSCLC, 16.5 µM; in the experiment on OVCAR-4 ovarian, 22.2 µM; in the experiment on A549 NSCLC, greater than 25.6 µM.
